Reference: patent US20120277440A1, “IMINO DERIVATIVES, PROCESS FOR PREPARATION THEREOF, AND IN[…]” (MEIJI SEIKA PHARMA CO., LTD., priority 2010, published 2012)

| melting point [°C] | SMILES |
| --- | --- |
| 76 to 78 | CC(=O)N=C1SCCN1Cc1ccc(Cl)nc1 |
| 125 to 126 | CCS(=O)(=O)N=C1SCCN1Cc1ccc(Cl)nc1 |
